In ChEMBL document CHEMBL1201862, “PubChem BioAssay data set” (2004):
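In this assay, cells in 96-well plates receive the compound at five concentrations for 48 hours. Endpoints are linearly interpolated between the surrounding concentrations. At the GI50, growth is halved.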 Active and inactive are the calls of the source. No stated cut-off is given here; in the data, active = GI50 up to about 1.1 µM and inactive = higher.

Legend:
Test in all cases: inhibition of tumour cell growth, NCI panel, 48 h
KM12 = test system: KM12
OVCAR-5 = test system: OVCAR-5
NCI-H226 = test system: NCI-H226
MDA-MB-231 = test system: MDA-MB-231
M14 = test system: M14
TK-10 = test system: TK-10
UACC-257 = test system: UACC-257
SNB-75 = test system: SNB-75
COLO 205 = test system: COLO 205
IGROV-1 = test system: IGROV-1
NCI/ADR-RES = test system: NCI/ADR-RES
CCRF-CEM = test system: CCRF-CEM
SW-620 = test system: SW-620
SK-MEL-2 = test system: SK-MEL-2
U-251 = test system: U-251
MOLT-4 = test system: MOLT-4
SF-539 = test system: SF-539
SF-268 = test system: SF-268

Compound	GI50 (KM12)	GI50 (OVCAR-5)	GI50 (NCI-H226)	GI50 (MDA-MB-231)	GI50 (M14)	GI50 (TK-10)	GI50 (UACC-257)	GI50 (SNB-75)	GI50 (COLO 205)	GI50 (IGROV-1)	GI50 (NCI/ADR-RES)	GI50 (CCRF-CEM)	GI50 (SW-620)	GI50 (SK-MEL-2)	GI50 (U-251)	GI50 (MOLT-4)	GI50 (SF-539)	GI50 (SF-268)
O=CC1=C(C(=O)OC(c2ccccc2)c2ccccc2)N2C(=O)[C@@H](NC(=O)Cc3cccs3)[C@H]2SC1	91.2 µM (inactive)	> 100 µM (inactive)	> 100 µM (inactive)	> 100 µM (inactive)	> 100 µM (inactive)	> 100 µM (inactive)	> 100 µM (inactive)	> 100 µM (inactive)	> 100 µM (inactive)	> 100 µM (inactive)	> 100 µM (inactive)	57.3 µM (inactive)	> 100 µM (inactive)	> 100 µM (inactive)	> 100 µM (inactive)	53.6 µM (inactive)	> 100 µM (inactive)	–
CCOC(=O)C1C[C@H]2CO[C@H](c3ccccc3)N2C1=O (stereo partly drawn)	> 100 µM (inactive)	> 100 µM (inactive)	> 100 µM (inactive)	> 100 µM (inactive)	> 100 µM (inactive)	> 100 µM (inactive)	> 100 µM (inactive)	> 100 µM (inactive)	> 100 µM (inactive)	> 100 µM (inactive)	> 100 µM (inactive)	> 100 µM (inactive)	> 100 µM (inactive)	> 100 µM (inactive)	> 100 µM (inactive)	> 100 µM (inactive)	> 100 µM (inactive)	> 100 µM (inactive)
CC(=O)CC1(CBr)Nc2ccc([N+](=O)[O-])cc2NC1=O (stereo not drawn)	56.2 µM (inactive)	> 100 µM (inactive)	> 100 µM (inactive)	> 100 µM (inactive)	> 100 µM (inactive)	82.2 µM (inactive)	> 100 µM (inactive)	> 100 µM (inactive)	> 100 µM (inactive)	> 100 µM (inactive)	> 100 µM (inactive)	45.2 µM (inactive)	28.7 µM (inactive)	> 100 µM (inactive)	> 100 µM (inactive)	42.9 µM (inactive)	44.1 µM (inactive)	> 100 µM (inactive)
N#CI1OC(C(F)(F)F)(C(F)(F)F)c2ccccc21	17 µM (inactive)	19.2 µM (inactive)	17.8 µM (inactive)	24 µM (inactive)	19 µM (inactive)	19 µM (inactive)	22.2 µM (inactive)	13.9 µM (inactive)	12.9 µM (inactive)	16.4 µM (inactive)	15.8 µM (inactive)	18.7 µM (inactive)	> 10 µM (inactive)	16.1 µM (inactive)	21.2 µM (inactive)	–	19.9 µM (inactive)	17.8 µM (inactive)
c1ccc2c[n+](CCCC[n+]3ccc4ccccc4c3)ccc2c1	> 100 µM (inactive)	> 100 µM (inactive)	> 100 µM (inactive)	> 100 µM (inactive)	1.12 µM (active)	> 100 µM (inactive)	> 100 µM (inactive)	> 100 µM (inactive)	> 100 µM (inactive)	> 100 µM (inactive)	> 100 µM (inactive)	> 100 µM (inactive)	> 100 µM (inactive)	> 100 µM (inactive)	> 100 µM (inactive)	–	> 100 µM (inactive)	> 100 µM (inactive)
O=C1CC(c2ccccc2Cl)Oc2ccccc21 (stereo not drawn)	27 µM (inactive)	–	3.84 µM (inactive)	26.9 µM (inactive)	25.9 µM (inactive)	98.6 µM (inactive)	> 100 µM (inactive)	22.7 µM (inactive)	25.4 µM (inactive)	21.4 µM (inactive)	13.1 µM (inactive)	33.9 µM (inactive)	25.5 µM (inactive)	19.9 µM (inactive)	27.7 µM (inactive)	–	16 µM (inactive)	37.2 µM (inactive)
